In publication PMC8304516, “A Fungal Defensin Targets the SARS−CoV−2 Spike Receptor−Binding Domain” (Journal of Fungi, 2021):
Where two headings read alike, the source gives them in different places. Bridge positions count the residues as written; N and C are the ends. Peptide text beside a SMILES is read from it.

Key:
[1] = target: SARS-CoV-2 Spike receptor-binding domain (residues N334-P527) (SARS-CoV-2 (isolate Wuhan-Hu-1)) (UniProt P0DTC2); assay: MST
SARS−CoV−2 Spike RBD = SARS−CoV−2 Spike RBD (Severe acute respiratory syndrome coronavirus 2, UniProt P0DTC2); assay: biochemical; type: binding

recombinant micasin E8K (peptide)
Kd [1]: 1900 nM

CC[C@H](C)[C@@H]1NC(=O)[C@H](CO)NC(=O)[C@H](CC(C)C)NC(=O)[C@@H]2CSSC[C@@H](C(=O)NCC(=O)N[C@@H](CCCCN)C(=O)N[C@@H](CCC(N)=O)C(=O)O)NC(=O)[C@H]([C@@H](C)O)NC(=O)[C@@H]3CSSC[C@H](NC(=O)[C@H](CCC(=O)O)NC(=O)[C@H](CC(N)=O)NC(=O)[C@H](CCC(=O)O)NC(=O)[C@H](CC(N)=O)NC(=O)[C@H](Cc4ccccc4)NC(=O)[C@@H]4CCCN4C(=O)[C@@H](NC(=O)CNC(=O)[C@H](Cc4ccccc4)NC(=O)CN)CSSC[C@H](NC(=O)[C@H](Cc4ccccc4)NC(=O)CNC(=O)[C@H](Cc4ccccc4)NC(=O)[C@H](CCCCN)NC(=O)[C@H](CCCNC(=N)N)NC(=O)CNC1=O)C(=O)N[C@@H](C)C(=O)NCC(=O)N1CCC[C@H]1C(=O)N[C@@H](CC(C)C)C(=O)N[C@@H](CCCNC(=N)N)C(=O)N[C@@H](C)C(=O)N[C@@H]([C@@H](C)O)C(=O)N3)C(=O)N[C@@H](Cc1c[nH]cn1)C(=O)N[C@@H](C)C(=O)N[C@@H](Cc1c[nH]cn1)C(=O)N2 [micasin] (H-GFGCPFNENECHAHCLSIGRKFGFCAGPLRATCTCGKQ-OH; disulfide 4-25, 11-33, 15-35)
Kd (SARS−CoV−2 Spike RBD; KD, SD): 5040 ± 960 nM

CC[C@H](C)[C@@H]1NC(=O)[C@H](CO)NC(=O)[C@H](CC(C)C)NC(=O)[C@@H]2CSSC[C@@H](C(=O)NCC(=O)N[C@@H](CCCCN)C(=O)N[C@@H](CCC(N)=O)C(=O)O)NC(=O)[C@H]([C@@H](C)O)NC(=O)[C@@H]3CSSC[C@H](NC(=O)[C@H](CCC(=O)O)NC(=O)[C@H](CC(N)=O)NC(=O)[C@H](CCCNC(=N)N)NC(=O)[C@H](CC(N)=O)NC(=O)[C@H](Cc4ccccc4)NC(=O)[C@@H]4CCCN4C(=O)[C@@H](NC(=O)CNC(=O)[C@H](Cc4ccccc4)NC(=O)CN)CSSC[C@H](NC(=O)[C@H](Cc4ccccc4)NC(=O)CNC(=O)[C@H](Cc4ccccc4)NC(=O)[C@H](CCCCN)NC(=O)[C@H](CCCNC(=N)N)NC(=O)CNC1=O)C(=O)N[C@@H](C)C(=O)NCC(=O)N1CCC[C@H]1C(=O)N[C@@H](CC(C)C)C(=O)N[C@@H](CCCNC(=N)N)C(=O)N[C@@H](C)C(=O)N[C@@H]([C@@H](C)O)C(=O)N3)C(=O)N[C@@H](Cc1c[nH]cn1)C(=O)N[C@@H](C)C(=O)N[C@@H](Cc1c[nH]cn1)C(=O)N2 [E8R] (H-GFGCPFNRNECHAHCLSIGRKFGFCAGPLRATCTCGKQ-OH; disulfide 4-25, 11-33, 15-35)
Kd (SARS−CoV−2 Spike RBD; KD, SD): 720 ± 220 nM

CC[C@H](C)[C@@H]1NC(=O)[C@H](CO)NC(=O)[C@H](CC(C)C)NC(=O)[C@@H]2CSSC[C@@H](C(=O)NCC(=O)N[C@@H](CCCCN)C(=O)N[C@@H](CCC(N)=O)C(=O)O)NC(=O)[C@H]([C@@H](C)O)NC(=O)[C@@H]3CSSC[C@H](NC(=O)[C@H](CCC(=O)O)NC(=O)[C@H](CC(N)=O)NC(=O)[C@H](CCCNC(=N)N)NC(=O)[C@H](CC(N)=O)NC(=O)[C@H](Cc4ccccc4)NC(=O)[C@@H]4CCCN4C(=O)[C@@H](NC(=O)CNC(=O)[C@H](Cc4ccccc4)NC(=O)CN)CSSC[C@H](NC(=O)[C@H](Cc4ccccc4)NC(=O)CNC(=O)[C@H](Cc4ccccc4)NC(=O)[C@H](CCCCN)NC(=O)[C@H](CCCNC(=N)N)NC(=O)CNC1=O)C(=O)N[C@@H](C)C(=O)NCC(=O)N1CCC[C@H]1C(=O)N[C@@H](CC(C)C)C(=O)N[C@@H](CCCNC(=N)N)C(=O)N[C@@H](C)C(=O)N[C@@H]([C@@H](C)O)C(=O)N3)C(=O)N[C@@H](Cc1c[nH]cn1)C(=O)N[C@@H](C)C(=O)N[C@@H](Cc1c[nH]cn1)C(=O)N2 [rE8R] (H-GFGCPFNRNECHAHCLSIGRKFGFCAGPLRATCTCGKQ-OH; disulfide 4-25, 11-33, 15-35)
Kd (SARS−CoV−2 Spike RBD; n = 2, read-out: KD): 1920 nM
